Measurements taken from article PMC9780203, “Synthesis, molecular docking, and in-vitro studies of pyrimidine-2-thione derivatives as antineoplastic agents via potential RAS/PI3K/Akt/JNK inhibition in breast carcinoma cells” (Scientific Reports, 2022).
“Also recorded” adds a separate entry of the source.

Experiments:
[1] = test system: normal human amniotic WISH cells; assay: MTT cell viability, normal WISH cells; assay type: cell-based; conditions: 48 h, mean ± SE, read-out: IC50, normal cell line (WISH)
Description: (§1) 3-(4,5-dimethylthiazol-2-yl)-2,5-diphenyltetrazolium bromide (MTT) assay was used to measure cell viability according to a prior study. The cells were grown in 96-well plates at a density of 1 × 10^4 cells/well, treated for 48 h with varied 5a (0–200 µM) or the reference drug DOX (0–100 µM) dosages, and then exposed to analysis. The culture medium was taken out after 48 h of incubation, and the cells were given two gentle washes with 1× ice-cold phosphate-buffered saline (PBS). The MTT (10×) has been diluted to a 1× solution in the culture medium (1 volume 10× MTT in 9 volumes medium) and 200 μl was added to each well. The microplate has been kept in a cell culture incubator at 37 °C for 4 h. Afterthat, 180 μl of the MTT solution was taken out and 100 μl of DMSO was put to each well. The microplate was incubated for 15 min with shaking at room temperature. The absorbance of each well was ultimately measured at 630 nm using a Model 680 microplate reader (Bio-Rad, CA, USA)[33].

[2] = test system: MCF-7 breast cancer cells; assay: MTT cell viability, MCF-7; assay type: cell-based; conditions: Homo sapiens, MCF7, 48 h, mean ± SE
Description: as §1

MCF-7 cells [3] = assay: Cell cycle analysis by flow cytometry (PI); assay type: cell-based, human; conditions: MCF-7, IC50 dose, 48 h; untreated control 8.6%
Description: Using flow cytometry, cell cycle analysis was carried out via a documented method of[35] with a few changes. After trypsinization, the MCF-7 cells were centrifuged at 4500 rpm for 5 min, followed by two washings, resuspension in 1× PBS, fixation with ice-cold absolute ethanol, and incubation at 20 °C for 24 h. Following two PBS washes, the cells were then resuspended in (0.05 mg/mL) propidium iodide (PI)[32] solution containing 50 µL (0.2 mg/mL) of RNase A, and 0.1% v/v Triton X-100 in PBS. Then, the cells were incubated at room temperature for 30–60 min in the dark. Finally, the pellet was washed with 1⤫ PBS and resuspended in 300 µL 1× PBS, and subjected to analysis on Accuri C6 flow cytometer (Becton Dickinson, Franklin Lake, BD, USA) equipped with PE X FL2 channels.

[4] = test system: PANC-1 pancreatic cancer cells; assay: MTT cell viability, PANC-1; assay type: cell-based; conditions: Homo sapiens, 48 h, mean ± SE
Description: as §1

Akt = assay: RT-PCR analysis of Akt gene expression in MCF-7; assay type: cell-based, human; conditions: MCF-7, IC50 dose, 48 h, vs untreated cells
Description: (§2) The total RNA was isolated from the MCF-7 cells using Trizol (Cat# R2072, ZYMO […] CORP. USA) according to the manufacturer’s instructions. Its quantity and quality were assessed using a Beckman dual spectrophotometer. The cDNA was performed using a miScript Reverse Transcription Kit (QIAGEN) Kit (218061) and a miScript SYBR Green PCR Kit was used for mRNA detection with quantification (218073). Reverse transcription was running on a StepOne system (Applied Biosystems, Foster City, CA, USA) in a total volume of 10 μL containing 5 μL of the miScript RT enzyme and […]. Real-time PCR for mRNA was performed on the same system in a total volume of 20 μL containing 10 μL of a 2× QuantiTect® SYBR Green PCR Master Mix and 10 ng of the cDNA template. The PCR thermal cycling conditions for the mRNA were 2 min at 50 °C, 30 s at 95 °C, 40 cycles of 95 °C for 5 s, and 60 °C for 34 s. The expression of the mRNA target genes was normalized to the expression of human GAPDH quantified using the 2^−ΔΔCt method. Table 1 contains a list of the primers used in the research.

[5] = test system: phospho-SAPK/JNK (Thr183/Tyr185); assay: Immunoblotting of p-JNK in MCF-7; assay type: cell-based, human; conditions: MCF-7, IC50 dose, 48 h, western blot, vs untreated cells
Description: (§3) Western blot analysis was conducted according to[37]. The ReadyPrepTM protein extraction kit (total protein) provided by Bio-Rad Inc (Cat #163-2086) was used to isolate proteins according to the manufacturer’s instructions. The Bradford protein assay kit (SK3041) from Bio Basic Inc. (Markham Ontario L3R 8T4 Canada) was then used to perform quantitative protein analysis. Afterward, a 20 μg protein concentration of each sample was subjected to 12% sodium dodecyl sulfate–polyacrylamide gel electrophoresis (SDS-PAGE), followed by transfer to polyvinylidene fluoride (PVDF) membranes (BioRad). Polyacrylamide gels were performed using the TGX Stain-Free™ FastCast™ Acrylamide Kit (SDS-PAGE) provided by Bio-Rad Laboratories Inc. (Cat # 161-0181). The SDS-PAGE TGX Stain-Free FastCast was prepared according to the manufacturer's instructions. The membrane was blocked in tris-buffered saline with Tween 20 (TBST) buffer and 3% bovine serum albumin (BSA) for 1 h at room temperature followed by probing with primary antibodies against phospho-RAS-GRF1 (Ser916) (1: 1000, Cell Signaling Technology, #3321), phospho-SAPK/JNK (Thr183/Tyr185) (1:1000, Cell Signaling Technology, #9251), p53 (1:1000, Cell Signaling Technology, #9282) and β-actin (1:3000, Cell Signaling Technology, #8457). […]

p53 = assay: Immunoblotting of p53 in MCF-7; assay type: cell-based, human; conditions: MCF-7, IC50 dose, 48 h, immunoblot, vs untreated cells
Description: as §3

[6] = test system: phospho-RAS-GRF1 (Ser916); assay: Immunoblotting of p-RAS in MCF-7; assay type: cell-based, human; conditions: MCF-7, IC50 dose, 48 h, western blot, vs untreated cells
Description: as §3

[7] = test system: Caco-2 colorectal cancer cells; assay: MTT cell viability, Caco-2; assay type: cell-based; conditions: Homo sapiens, 48 h, mean ± SE
Description: as §1

PI3K = assay: RT-PCR analysis of PI3K gene expression in MCF-7; assay type: cell-based, human; conditions: MCF-7, IC50 dose, 48 h, vs untreated cells
Description: as §2

MCF-7 cells [8] = assay: Cell morphology by inverted light microscope; assay type: cell-based, human; conditions: IC50 dose, 48 h
Description: Using an inverted light microscope (Olympus, USA), the morphological alterations of the treated and untreated cells were evaluated and documented after 48 h of incubation.

p21 = assay: RT-PCR analysis of p21 gene expression in MCF-7; assay type: cell-based, human; conditions: MCF-7, IC50 dose, 48 h, vs untreated cells
Description: as §2

[9] = test system: MDA-MB-231 breast cancer cells; assay: MTT cell viability, MDA-MB-231; assay type: cell-based; conditions: Homo sapiens, 48 h, mean ± SE
Description: as §1

SMILES	IC50 [1]	IC50 [2]	Percentage of cells at sub-G0/G1 (MCF-7 cells [3])	IC50 [4]	mRNA transcript level of Akt (Akt)	p-JNK protein expression [5]	p53 protein expression (p53)	levels of p-RAS proteins [6]	IC50 [7]	mRNA transcript level of PI3K (PI3K)	Morphological features of MCF-7 cells (MCF-7 cells [8])	p21 gene expression (p21)	IC50 [9]	melting point
COc1cccc2c1C(=O)c1c(O)c3c(c(O)c1C2=O)C[C@@](O)(C(=O)CO)C[C@@H]3O[C@H]1C[C@H](N)[C@H](O)[C@H](C)O1 [DOX, Doxorubicin, reference compound]	24.5 ± 2.1 µM	2.26 ± 1.4 µM												
COc1cc(C2CC(C3=C(C)NC(=S)NC3c3ccc(N(C)C)cc3)=NN2c2ccccc2)ccc1O (stereo not shown) [compound 5a, 4-(4-(dimethylamino)phenyl)-5-(5-(4-hydroxy-3-methoxyphenyl)-1-phenyl-4,5-dihydro-1H-pyrazol-3-yl)-6-methyl-3,4-dihydropyrimidine-2(1H)-thione]	180 ± 2.7 µM	2.62 ± 1.6 µM	48.5%	23.6 ± 2.4 µM	significantly reduced; also recorded: downregulated	significant reduction	significant elevation	significantly decreased	14.8 ± 2.5 µM	significantly reduced; also recorded: downregulated	detectable morphological signs of apoptosis	significantly upregulated	6.78 ± 2.2 µM	
COc1cc(/C=C/C(=O)C2=C(C)NC(=S)NC2c2cccs2)ccc1O (stereo not shown) [2b, [E]-3-(4-hydroxy-3-methoxyphenyl)-1-(6-methyl-4-(thiophen-2-yl)-2-thioxo-1,2,3,4-tetrahydropyrimidin-5-yl)prop-2-en-1-one]														258 °C
